biological target: T1, HiBiT-tagged MDM2 (Homo sapiens, UniProt Q00987); experiment: MDM2 HiBit HEK293T degradation; type: cell-based; settings: HEK293T cells stably expressing C-terminally HiBiT-tagged MDM2; 4 h; read-out: MDM2 HiBit HEK293T degradation 4 h: Average external-Abs DC50
T1 construct: expressed in transfected cells
Description: HEK293T cells were grown overnight to 70-80% confluency in a 6-well plate in complete media (DMEM 10% FBS) in a 37° C. incubator with 5% CO2. Cells were transfected with 1 micrograms of C- or N-terminally HiBiT-tagged MDM2 constructs using Fugene 6 transfection reagent (Promega) as per manufacturer protocol. After overnight incubation at 37° C., growth media within the wells was replaced with selection media (DMEM+10% FBS+1 microgram/ml final concentration of Puromycin). Puromycin (selection antibiotic) concentrations required for complete cell kill were determined previously. Cells were monitored for the next 48h-96h to select for positively transfected cells. Surviving colonies were pooled and expanded in selection media. Expanded pools of HEK293T cells stably expressing C- and N-terminally HiBiT-tagged MDM2, were characterized using a MDM2 tool degrader and HaloPROTAC3 as positive control. HEK293T cells expressing C-terminally HiBiT-tagged MDM2 were subsequently used for assessment of degradation potencies for MDM2 degraders.
The letter codes for MDM2 degradation potency (DC50) include: A (<10 nM), B […], C (>100-1000 nM), and D (>1000 nM).

T1 sequence (Q00987 whole entry): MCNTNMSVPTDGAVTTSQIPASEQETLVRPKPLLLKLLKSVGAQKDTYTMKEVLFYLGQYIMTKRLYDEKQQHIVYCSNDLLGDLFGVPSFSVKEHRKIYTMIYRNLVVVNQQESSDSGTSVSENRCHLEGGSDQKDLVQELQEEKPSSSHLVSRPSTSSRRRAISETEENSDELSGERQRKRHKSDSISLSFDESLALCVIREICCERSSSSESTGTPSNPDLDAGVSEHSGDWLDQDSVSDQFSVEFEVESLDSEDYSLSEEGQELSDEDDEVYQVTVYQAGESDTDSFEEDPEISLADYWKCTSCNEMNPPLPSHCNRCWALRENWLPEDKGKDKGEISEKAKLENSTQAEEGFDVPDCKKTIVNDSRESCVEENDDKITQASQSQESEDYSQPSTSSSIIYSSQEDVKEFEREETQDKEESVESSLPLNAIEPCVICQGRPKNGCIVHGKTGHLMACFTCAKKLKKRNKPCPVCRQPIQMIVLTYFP

Row | SMILES | DC50 [nM]
1 | Cn1c(=O)n([C@H]2CCC(=O)NC2=O)c2ccc(C3CCN(C(=O)[C@H]4CC[C@H](NC(=O)[C@@H]5NC6(CCCCC6)[C@@]6(C(=O)Nc7cc(Cl)ccc76)[C@H]5c5cccc(Cl)c5F)CC4)CC3)cc21 (single isomer, unassigned) [I-103] | < 10
2 | Cn1c(=O)n([C@@H]2CCC(=O)NC2=O)c2ccc(C3CCN(C(=O)[C@H]4CC[C@H](NC(=O)[C@@H]5NC6(CCCCC6)[C@@]6(C(=O)Nc7cc(Cl)ccc76)[C@H]5c5cccc(Cl)c5F)CC4)CC3)cc21 (single isomer, unassigned) [I-104] | < 10
3 | CN1CCN(C[C@H]2CC[C@H](NC(=O)[C@@H]3NC4(CCCCC4)[C@@]4(C(=O)Nc5cc(Cl)ccc54)[C@H]3c3cccc(Cl)c3F)CC2)C[C@H]1CCc1ccc2c(c1)n(C)c(=O)n2C1CCC(=O)NC1=O (stereo partly drawn) [I-1] | < 10
4 | COc1cc2c(cc1OC(C)C)[C@H](c1ccc(Cl)cc1)N(c1ccc(N(C)CC3CCN(CCCCc4ccc5c(c4)n(C)c(=O)n5C4CCC(=O)NC4=O)CC3)cc1)C(=O)C2 (stereo partly drawn) [I-4] | 10 to 100
5 | Cn1c(=O)n(C2CCC(=O)NC2=O)c2ccc(C3=CCN(C[C@H]4CC[C@H](NC(=O)[C@@H]5NC6(CCCCC6)[C@@]6(C(=O)Nc7cc(Cl)ccc76)[C@H]5c5cccc(Cl)c5F)CC4)CC3)cc21 (stereo partly drawn) [I-5] | < 10
6 | Cn1c(=O)n(C2CCC(=O)NC2=O)c2ccc(O[C@@H]3C[C@@H](C(=O)O)N(C[C@H]4CC[C@H](NC(=O)[C@@H]5NC6(CCCCC6)[C@@]6(C(=O)Nc7cc(Cl)ccc76)[C@H]5c5cccc(Cl)c5F)CC4)C3)cc21 (stereo partly drawn) [I-200] | 10 to 100
7 | Cn1c(=O)n(C2CCC(=O)NC2=O)c2ccc(CCCN3CCN(C[C@H]4CC[C@H](NC(=O)[C@@H]5NC6(CCCCC6)[C@@]6(C(=O)Nc7cc(Cl)ccc76)[C@H]5c5cccc(Cl)c5F)CC4)C(C(=O)O)C3)cc21 (stereo partly drawn) [I-202] | < 10
8 | Cn1c(=O)n(C2CCC(=O)NC2=O)c2ccc(N3CCC(CC4(C(=O)O)CCN(C[C@H]5CC[C@H](NC(=O)[C@@H]6NC7(CCCCC7)[C@@]7(C(=O)Nc8cc(Cl)ccc87)[C@H]6c6cccc(Cl)c6F)CC5)CC4)CC3)cc21 (stereo partly drawn) [I-203] | < 10
9 | Cc1ncsc1-c1ccc(CNC(=O)[C@@H]2C[C@@H](O)CN2C(=O)[C@@H](NC(=O)C2(F)CC2)C(C)(C)C)c(OCCCC2CCN(C[C@H]3CC[C@H](NC(=O)[C@@H]4NC5(CCCCC5)[C@@]5(C(=O)Nc6cc(Cl)ccc65)[C@H]4c4cccc(Cl)c4F)CC3)CC2)c1 [I-204] | > 1000
10 | O=C(O)Cn1c(=O)n(C2CCC(=O)NC2=O)c2ccc(C3CCN(C[C@H]4CC[C@H](NC(=O)[C@@H]5NC6(CCCCC6)[C@@]6(C(=O)Nc7cc(Cl)ccc76)[C@H]5c5cccc(Cl)c5F)CC4)CC3)cc21 (stereo partly drawn) [I-206] | 10 to 100
11 | O=C1CCN(c2ccc(CCCCN3CCN(C[C@H]4CC[C@H](NC(=O)[C@@H]5NC6(CCCCC6)[C@@]6(C(=O)Nc7cc(Cl)ccc76)[C@H]5c5cccc(Cl)c5F)CC4)CC3)cc2)C(=O)N1 [I-208] | > 1000
12 | Cn1c(=O)n(C2CCC(=O)NC2=O)c2ccc(CC3(CC(=O)O)CCN(C[C@H]4CC[C@H](NC(=O)[C@@H]5NC6(CCCCC6)[C@@]6(C(=O)Nc7cc(Cl)ccc76)[C@H]5c5cccc(Cl)c5F)CC4)CC3)cc21 (stereo partly drawn) [I-210] | 10 to 100
13 | Cn1c(=O)n(C2CCC(=O)NC2=O)c2ccc(CCCCCN3CCN(C[C@H]4CC[C@H](NC(=O)[C@@H]5NC6(CCCCC6)[C@@]6(C(=O)Nc7cc(Cl)ccc76)[C@H]5c5cccc(Cl)c5F)CC4)[C@H](C(=O)O)C3)cc21 (stereo partly drawn) [I-211] | < 10
14 | Cn1c(=O)n(C2CCC(=O)NC2=O)c2ccc(CCCCCN3CCN(C[C@H]4CC[C@H](NC(=O)[C@@H]5NC6(CCCCC6)[C@@]6(C(=O)Nc7cc(Cl)ccc76)[C@H]5c5cccc(Cl)c5F)CC4)[C@@H](C(=O)O)C3)cc21 (stereo partly drawn) [I-212] | < 10
15 | Cn1c(=O)n(C2CCC(=O)NC2=O)c2ccc(CCCCN3CCN(C[C@H]4CC[C@H](NC(=O)[C@@H]5NC6(CCCCC6)[C@@]6(C(=O)Nc7cc(Cl)ccc76)[C@H]5c5cccc(Cl)c5F)CC4)[C@H](C(=O)O)C3)cc21 (stereo partly drawn) [I-213] | < 10
16 | Cn1c(=O)n(C2CCC(=O)NC2=O)c2ccc(CCCCN3CCN(C[C@H]4CC[C@H](NC(=O)[C@@H]5NC6(CCCCC6)[C@@]6(C(=O)Nc7cc(Cl)ccc76)[C@H]5c5cccc(Cl)c5F)CC4)[C@@H](C(=O)O)C3)cc21 (stereo partly drawn) [I-214] | < 10
17 | Cn1c(=O)n(C2CCC(=O)NC2=O)c2ccc(CCCN3CCN(C[C@H]4CC[C@H](NC(=O)[C@@H]5NC6(CCCCC6)[C@@]6(C(=O)Nc7cc(Cl)ccc76)[C@H]5c5cccc(Cl)c5F)CC4)[C@@H](C(=O)O)C3)cc21 (stereo partly drawn) [I-216] | < 10
18 | Cn1c(=O)n(C2CCC(=O)NC2=O)c2ccc(CCCN3CCN(C[C@H]4CC[C@H](NC(=O)[C@@H]5NC6(CCCCC6)[C@@]6(C(=O)Nc7cc(Cl)ccc76)[C@H]5c5cccc(Cl)c5F)CC4)[C@@H](C(=O)NS(C)(=O)=O)C3)cc21 (stereo partly drawn) [I-222] | < 10
19 | Cn1c(=O)n(C2CCC(=O)NC2=O)c2ccc(CCCN3CCN(C[C@H]4CC[C@H](NC(=O)[C@@H]5NC6(CCC(C)(C)CC6)[C@@]6(C(=O)Nc7cc(Cl)ccc76)[C@H]5c5ccnc(Cl)c5F)CC4)[C@@H](C(=O)O)C3)cc21 (stereo partly drawn) [I-223] | < 10
20 | Cn1c(=O)n(C2CCC(=O)NC2=O)c2ccc(C3CCN(CCN4CCN(C[C@H]5CC[C@H](NC(=O)[C@@H]6NC7(CCCCC7)[C@@]7(C(=O)Nc8cc(Cl)ccc87)[C@H]6c6cccc(Cl)c6F)CC5)[C@H](C(=O)O)C4)CC3)cc21 (stereo partly drawn) [I-227] | < 10
21 | Cn1c(=O)n(C2CCC(=O)NC2=O)c2ccc(CCCN3CCN(C[C@H]4CC[C@H](NC(=O)[C@@H]5NC6(CCCCC6)[C@@]6(C(=O)Nc7cc(Cl)ccc76)[C@H]5c5cccc(Cl)c5F)CC4)C[C@H]3C(=O)O)cc21 (stereo partly drawn) [I-229] | < 10
22 | Cn1c(=O)n(C2CCC(=O)NC2=O)c2ccc(CCCN3CCN(C[C@H]4CC[C@H](NC(=O)[C@@H]5NC6(CCCCC6)[C@@]6(C(=O)Nc7cc(Cl)ccc76)[C@H]5c5cccc(Cl)c5F)CC4)C(P(=O)(O)O)C3)cc21 (stereo partly drawn) [I-235] | 10 to 100

test system: RS411 cells; experiment: Cell Viability CTG Assay; type: cell-based; settings: Homo sapiens, RS4-11, CellTiter Glo (CTG) cell viability, read-out: Average external-IC50
Description: Compounds or DMSO 60 nL were stamped to the cell plate as the platemap. RS411 cells were centrifuged at 800 rpm for 5 min, suspended with culture medium, and counted with Countess (Invitrogen). The cell density was adjusted to the recommend information. 30 μL of cell solution (1000 cells/well) was added to the assay plate as the platemap and 30 μL of media was added to column 2 and column 23 as the platemap. The plate was spun down briefly. The final concentration of the compounds started at 10 μM (3 fold dilution and 11 doses) and final DMSO concentration was 0.2%. The plate was spun down briefly and incubated at 37° C., 5% CO2 for 1 day. […] 30 μL CellTiter Glo reagent was added to each well and the plate was centrifuged at 1000 rpm for 30 sec. The plate was shaken for 1 min and centrifuged at 1000 rpm for 30 sec. The plate was incubated at RT for 10 min to stabilize the luminescent signal and the luminescence was read by EnVision.
The letter codes for IC50 indicate the concentration of compound required to affect 50% of cells: A (<0.005 μM), B (0.005-0.05 μM), C (0.05-0.5 μM), and D (>0.5 μM).

Row | SMILES | IC50 [nM]
23 | Cn1c(=O)n([C@H]2CCC(=O)NC2=O)c2ccc(C3CCN(C(=O)[C@H]4CC[C@H](NC(=O)[C@@H]5NC6(CCCCC6)[C@@]6(C(=O)Nc7cc(Cl)ccc76)[C@H]5c5cccc(Cl)c5F)CC4)CC3)cc21 (single isomer, unassigned) [I-103] | < 5
24 | Cn1c(=O)n([C@@H]2CCC(=O)NC2=O)c2ccc(C3CCN(C(=O)[C@H]4CC[C@H](NC(=O)[C@@H]5NC6(CCCCC6)[C@@]6(C(=O)Nc7cc(Cl)ccc76)[C@H]5c5cccc(Cl)c5F)CC4)CC3)cc21 (single isomer, unassigned) [I-104] | < 5
25 | CN1CCN(C[C@H]2CC[C@H](NC(=O)[C@@H]3NC4(CCCCC4)[C@@]4(C(=O)Nc5cc(Cl)ccc54)[C@H]3c3cccc(Cl)c3F)CC2)C[C@H]1CCc1ccc2c(c1)n(C)c(=O)n2C1CCC(=O)NC1=O (stereo partly drawn) [I-1] | < 5
26 | COc1cc2c(cc1OC(C)C)[C@H](c1ccc(Cl)cc1)N(c1ccc(N(C)CC3CCN(CCCCc4ccc5c(c4)n(C)c(=O)n5C4CCC(=O)NC4=O)CC3)cc1)C(=O)C2 (stereo partly drawn) [I-4] | < 5
27 | Cn1c(=O)n(C2CCC(=O)NC2=O)c2ccc(C3=CCN(C[C@H]4CC[C@H](NC(=O)[C@@H]5NC6(CCCCC6)[C@@]6(C(=O)Nc7cc(Cl)ccc76)[C@H]5c5cccc(Cl)c5F)CC4)CC3)cc21 (stereo partly drawn) [I-5] | < 5
28 | Cn1c(=O)n(C2CCC(=O)NC2=O)c2ccc(C#CC3CCN(C(=O)[C@@H]4CC[C@@H](NC(=O)[C@@H]5NC6(CCC(C)(C)CC6)[C@@]6(C(=O)Nc7cc(Cl)ccc76)[C@H]5c5cccc(Cl)c5F)CO4)CC3)cc21 (stereo partly drawn) [I-36] | < 5
29 | COc1cc2c(cc1OC(C)C)[C@H](c1ccc(Cl)cc1)N(c1ccc(N(C)CC3CCN(CCCc4ccc5c(c4)n(C)c(=O)n5C4CCC(=O)NC4=O)C(=O)C3)cc1)C(=O)C2 (stereo partly drawn) [I-68] | < 5
30 | Cn1c(=O)n(C2CCC(=O)NC2=O)c2ccc(C3(C(=O)O)CCN(C(=O)[C@H]4CC[C@H](NC(=O)[C@@H]5NC6(CCCCC6)C6(C(=O)Nc7cc(Cl)ccc76)[C@H]5c5cccc(Cl)c5F)CC4)CC3)cc21 (stereo partly drawn) [I-84, 1-((1R,4r)-4-((3′R,4′S,5′R)-6″-chloro-4′-(3-chloro-2-fluorophenyl)-2″-oxodispiro[cyclohexane-1,2′-pyrrolidine-3′,3″-indoline]-5′-carboxamido)cyclohexane-1-carbonyl)-4-(1-(2,6-dioxopiperidin-3-yl)-3-methyl-2-oxo-2,3-dihydro-1H-benzo[d]imidazol-5-yl)piperidine-4-carboxylic acid] | 50 to 500
31 | Cn1c(=O)n(C2CCC(=O)NC2=O)c2ccc(CCCS(=O)(=O)NC(=O)[C@H]3CC[C@H](NC(=O)[C@@H]4NC5(CCCCC5)[C@@]5(C(=O)Nc6cc(Cl)ccc65)[C@H]4c4cccc(Cl)c4F)CC3)cc21 (stereo partly drawn) [I-100] | 50 to 500
32 | CN1C(=O)CCC(n2c(=O)n(C)c3cc(C4CCN(C[C@H]5CC[C@H](NC(=O)[C@@H]6NC7(CCCCC7)[C@@]7(C(=O)Nc8cc(Cl)ccc87)[C@H]6c6cccc(Cl)c6F)CC5)CC4)ccc32)C1=O (stereo partly drawn) [I-101] | 5 to 50
33 | COC(=O)C1(c2ccc3c(c2)n(C)c(=O)n3C2CCC(=O)NC2=O)CCN(C(=O)[C@H]2CC[C@H](NC(=O)[C@@H]3NC4(CCCCC4)[C@@]4(C(=O)Nc5cc(Cl)ccc54)[C@H]3c3cccc(Cl)c3F)CC2)CC1 (stereo partly drawn) [I-102, methyl 1-((1R,4r)-4-((3′R,4′S,5′R)-6″-chloro-4′-(3-chloro-2-fluorophenyl)-2″-oxodispiro[cyclohexane-1,2′-pyrrolidine-3′,3″-indoline]-5′-carboxamido)cyclohexane-1-carbonyl)-4-(1-(2,6-dioxopiperidin-3-yl)-3-methyl-2-oxo-2,3-dihydro-1H-benzo[d]imidazol-5-yl)piperidine-4-carboxylate] | < 5
